Assay: Vapor pressure of solvents for negative tone development and rinsing
Conditions: value at 20° C.

Row | Compound | Vapor Pressure [kPa]
1 | CC(=O)OCCC(C)C [Isoamyl acetate] | 0.53
2 | CC(=O)CC(C)C [Methyl isobutyl ketone] | 2.1
3 | CCC(C)=O [Methyl ethyl ketone] | 10.5
4 | CC(C)CCO [3-Methyl-1-butanol] | 0.4
5 | CCCCOC(C)=O [Butyl acetate] | 1.2

Results, then the compound that gave them:

Row | Vapor Pressure [kPa] | Compound
6 | 0.04 | CCCCCCCCCCCC [Dodecane]
7 | 8.33 | CCCOCCC [Dipropyl ether]
8 | 0.015 | CCCCCCCO [1-Heptanol]
9 | 0.17 | CCCCCCCCCC [Decane]
10 | 0.133 | CCCCCC(C)O (stereo not drawn) [2-Heptanol]
11 | 0.36 | CCCCC(C)=O [2-Hexanone]
12 | 0.13 | CCCCCCO [1-Hexanol]
